The target of assay [1] is T1, 5-hydroxytryptamine receptor 1A (Rattus norvegicus, UniProt P19327).
T1 sequence (P19327 whole entry): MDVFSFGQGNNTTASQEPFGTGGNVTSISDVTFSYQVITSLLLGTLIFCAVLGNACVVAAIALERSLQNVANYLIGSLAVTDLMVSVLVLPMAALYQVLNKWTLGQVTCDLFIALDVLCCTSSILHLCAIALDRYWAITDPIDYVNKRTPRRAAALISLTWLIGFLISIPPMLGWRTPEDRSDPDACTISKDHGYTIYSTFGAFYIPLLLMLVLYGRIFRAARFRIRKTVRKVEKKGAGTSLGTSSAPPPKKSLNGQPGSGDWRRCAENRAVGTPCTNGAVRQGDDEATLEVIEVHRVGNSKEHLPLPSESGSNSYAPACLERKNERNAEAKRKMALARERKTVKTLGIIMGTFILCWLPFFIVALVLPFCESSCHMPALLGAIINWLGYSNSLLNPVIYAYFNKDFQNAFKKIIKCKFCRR
The experiment in a line: The binding affinity by measuring its ability to displace [3H]8-OH-DPAT radioligand in 5-hydroxytryptamine 1A receptor on rat hippocampal preparation. The assay is classed as tissue-based, Hippocampus.

The target in assay [2] is D(3) dopamine receptor (Homo sapiens, UniProt P35462). The experiment in a line: biochemical.
D(3) dopamine receptor, sequence (P35462 whole entry): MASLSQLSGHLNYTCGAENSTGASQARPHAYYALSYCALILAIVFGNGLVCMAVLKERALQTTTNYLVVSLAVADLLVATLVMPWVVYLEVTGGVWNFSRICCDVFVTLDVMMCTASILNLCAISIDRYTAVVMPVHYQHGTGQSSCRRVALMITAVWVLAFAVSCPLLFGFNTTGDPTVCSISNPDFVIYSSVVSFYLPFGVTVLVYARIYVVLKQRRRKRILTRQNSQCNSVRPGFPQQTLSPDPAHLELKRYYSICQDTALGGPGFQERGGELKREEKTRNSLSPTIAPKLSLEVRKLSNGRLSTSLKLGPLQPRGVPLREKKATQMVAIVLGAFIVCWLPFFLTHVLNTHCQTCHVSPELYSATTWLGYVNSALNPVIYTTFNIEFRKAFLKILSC
Description: Binding affinity determined by measuring displacement of [3H]spiperone from cloned Human Dopamine receptor D3 in CHO-K1 cells
Assay [3] deals with Rattus norvegicus. The experiment in a line: In vivo DA d2 activity determined by measuring effects on DA synthesis by observing the changes in accumulation of (DOPA) after administration of a 10 mg/kg ip. Particulars: route intraperitoneal. The assay is classed as functional.
The target in assay [4] is T2, D(2) dopamine receptor (Homo sapiens, UniProt P14416). The experiment in a line: Percentage intrinsic activity measured at DA D2 receptor by measuring its ability to […] [3H]-thymidine uptake in CHO-K1 cells transfected with the Dopamine receptor D2. It is filed as cell-based.
T2 sequence (P14416 whole entry): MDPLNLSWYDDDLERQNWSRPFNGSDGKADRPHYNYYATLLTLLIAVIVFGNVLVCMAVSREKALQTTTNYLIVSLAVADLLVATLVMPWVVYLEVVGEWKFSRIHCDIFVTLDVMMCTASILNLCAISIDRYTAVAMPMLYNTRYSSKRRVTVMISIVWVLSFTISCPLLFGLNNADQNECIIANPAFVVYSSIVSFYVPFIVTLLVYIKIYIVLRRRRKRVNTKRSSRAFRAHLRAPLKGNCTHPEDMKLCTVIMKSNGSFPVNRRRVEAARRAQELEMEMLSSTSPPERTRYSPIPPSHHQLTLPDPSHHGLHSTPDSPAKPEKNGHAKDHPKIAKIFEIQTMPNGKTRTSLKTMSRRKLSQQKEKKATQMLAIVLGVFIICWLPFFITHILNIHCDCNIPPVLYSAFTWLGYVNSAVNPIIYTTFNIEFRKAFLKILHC
In assay [5] the target is T2, D(2) dopamine receptor. The experiment in a line: biochemical.
Description: Binding affinity determined by measuring its ability to displace [3H]N-0437 radioligand in CHO-K1 cells on Cloned Human Dopamine receptor D2
Assay [6] concerns the target 5-hydroxytryptamine receptor 1A (Rattus norvegicus) (UniProt P19327). The experiment in a line: Intrinsic agonist activity at 5-HT1A receptors was measured in vivo by measuring changes in 5-HT levels after administration of compound by observing accumulation of the 5-HT […] 5-hydroxytryptophan (5-HTP) after administration of a 10 mg/k g ip.
In assay [7] the target is T2, D(2) dopamine receptor. The experiment in a line: The in vitro intrinsic activity was measured at DA D2 receptor by measuring its ability to increase [3H]thymidine uptake in CHO-K1 cells transfected with the Dopamine receptor D2. It is filed as cell-based.
Assay [8] concerns Rattus norvegicus. The experiment in a line: In vivo DA D2 activity determined by measuring effects on DA synthesis by observing the changes in accumulation of (DOPA) after administration of a 10 mg/kg ip. The assay is classed as functional. The conditions noted are these: route intraperitoneal.
Assay [9] deals with Mus musculus. The experiment in a line: The inhibited exploratory locomotor activity of compound in mice after ip administration. It is filed as functional.
Assay [10] is described as follows: The inhibition of Sidman avoidance responding of compound in squirrel monkeys after oral administration.
Assay [11] has as its system Rattus norvegicus. The experiment in a line: The % decrease of rat striatal dopamine overflow at the dose of 10 mg/kg through ip. The assay is classed as functional.
The test system of assay [12] is Rattus norvegicus. The experiment in a line: The inhibited exploratory locomotor activity of compound in rat after oral administration. It is filed as functional.
Assay [13] has as its system Rattus norvegicus. The experiment in a line: The % decrease of rat striatal 5-HIAA overflow at the dose of 10 mg/kg through ip. It is filed as functional.

These results are taken from ChEMBL document CHEMBL1131565, “Aminopyrimidines with high affinity for both serotonin and dopamine receptors” (J Med Chem, 1998).

Regarding `c1ccc(N2CCN(CC[C@H]3CC[C@H](Nc4ncccn4)CC3)CC2)nc1`, the results for the inhibition constant (Ki) in assay [1] and in assay [2] were 2.2 nM and 26 nM, respectively. In [3], this compound returned a Control of 159%. This compound also came in with an Intrinsic activity in assay [4] of 41%.

As to `Clc1cccc(N2CCN(CC[C@H]3CC[C@H](Nc4ncccn4)CC3)CC2)c1Cl`, the Ki in assay [1] came out at 76 nM; in assay [5], 11 nM; in assay [2] it was 5 nM.

Take `CCCN(CCC)CC[C@H]1CC[C@H](Nc2ncccn2)CC1`: the values for the Ki in assay [5] and in [2] were 2400 nM and 800 nM, respectively.

In the case of `c1cnc(N[C@H]2CC[C@H](CCN3CCN(c4nccs4)CC3)CC2)nc1`, the inhibitory constant (Ki) worked out at 10 nM in assay [1] and 46 nM in assay [5].

As for `c1cnc(N[C@H]2CC[C@H](CCN3CCN(c4ncccn4)CC3)CC2)nc1`, the Ki in assay [1] stood at 8.6 nM; in assay [5], 240 nM; in assay [2], 590 nM.

`c1cnc(N[C@H]2CC[C@H](CCN3CCN(c4cnccn4)CC3)CC2)nc1`: the Ki in assay [1] came to 29 nM; in assay [5], 180 nM; in [2], 210 nM.

Consider `FC(F)(F)c1cccc(N2CCN(CC[C@H]3CC[C@H](Nc4ncccn4)CC3)CC2)c1`, for which the inhibitory constant (Ki) in assay [1] was 13 nM; in assay [5] it was 6 nM; in [2], 32 nM.

On to `COc1ccccc1N1CCN(CC[C@H]2CC[C@H](Nc3ncccn3)CC2)CC1`, for which the values for the inhibition constant Ki in [1], in assay [5] and in [2] were 0.5 nM, 3 nM and 11 nM, respectively. Moreover, the Control in assay [6] came to 128%; in assay [8], 173%. Further, the IC50 in assay [7] turned out to be 9.9 nM. For the same compound, in assay [4], the Intrinsic activity was 8%.

Turning to `c1ccc(N2CCN(C3CCC(Nc4ncccn4)CC3)CC2)cc1` (stereo in doubt; 20), the inhibition constant (Ki) came out at 83 nM in assay [1], 320 nM in [5] and 610 nM in [2].

In [1], `O=C(N[C@H]1CC[C@H](CCN2CCN(c3ccccc3)CC2)CC1)C1CCCCC1` had an inhibition constant (Ki) of 5300 nM.

In assay [1], `O=C(N[C@H]1CC[C@H](CCN2CCN(c3ccccc3)CC2)CC1)c1cccs1` yielded an inhibitory constant (Ki) of 57 nM. Against the preceding compound, the Ki is about 93-fold lower.

On to `Fc1ccc(N2CCN(CC[C@H]3CC[C@H](Nc4ncccn4)CC3)CC2)cc1`, for which the results for the inhibition constant (Ki) in [1], in [5] and in assay [2] were 4.5 nM, 8.5 nM and 48 nM, respectively. Further, the results for the Control in assay [3] and in assay [6] were 142% and 143%, respectively. Moreover, in [7], the 50% inhibitory concentration (IC50) worked out at 79 nM. Moreover, the Intrinsic activity in assay [4] was 5%.

In the case of `CN(c1ncccn1)[C@H]1CC[C@H](CCN2CCN(c3ccccc3)CC2)CC1`, the Ki in assay [1] came out at 4.7 nM; in assay [5], 4.8 nM; in [2], 24 nM.

On to `C1=C(c2ccccc2)CCN(CC[C@H]2CC[C@H](Nc3ncccn3)CC2)C1`, for which the inhibitory constant (Ki) in assay [1] stood at 3.9 nM; in assay [5], 4.7 nM; in assay [2], 3.7 nM.

On to `c1ccc(N2CCN(C[C@H]3CC[C@H](Nc4ncccn4)CC3)CC2)cc1`, for which the inhibition constant Ki in [1] is 41 nM; in assay [5] it was 5.7 nM; in [2] it was 89 nM.

With `c1cnc(N[C@H]2CC[C@H](CCN3CCN(c4ccncc4)CC3)CC2)nc1`, the inhibitory constant (Ki) in [1] is 730 nM; in [5], 4800 nM; in [2] it was 2300 nM.

On to `c1ccc(N2CCN(C3CCC(Nc4ncccn4)CC3)CC2)cc1` (stereo in doubt; 19), for which the Ki is 470 nM in assay [1], 160 nM in assay [5] and 550 nM in [2].

Consider `c1ccc(N2CCN(CC[C@H]3CC[C@@H](Nc4ncccn4)CC3)CC2)cc1`, for which the affinity in [2] corresponds to a Ki of 29 nM.

`c1cnc(N[C@H]2CC[C@H](CCN3CCc4ccccc4C3)CC2)nc1`: the inhibition constant Ki in [1] worked out at 44 nM; in assay [5], 110 nM; in [2], 40 nM.

For `c1ccc(N2CCN(CC[C@H]3CC[C@H](Nc4ncccn4)CC3)CC2)cc1`, the inhibitory constant (Ki) in assay [1] amounted to 3.5 nM; in assay [5] it was 5.2 nM; in assay [2], 13.7 nM. The ED50 turned out to be 0.4 mg/kg in [9], 0.28 mg/kg in assay [10] and 4.6 mg/kg in assay [12]. Moreover, the Decrease was 50% in [11] and 42% in [13]. Further, it took 29 nM to reach a half-maximal effect in [7] (EC50). The Intrinsic activity in assay [4] amounted to 60%. Moreover, the Control in [8] is 67%.

`COc1ccc(N2CCN(CC[C@H]3CC[C@H](Nc4ncccn4)CC3)CC2)cc1`: the Ki in assay [1] turned out to be 160 nM; in [5] it was 390 nM; in [2], 52 nM.

Consider `c1ccc(N2CCN(CCC[C@H]3CC[C@H](Nc4ncccn4)CC3)CC2)cc1`, for which the figures for the Ki in assay [1], in assay [5] and in [2] were 16 nM, 7.4 nM and 54 nM, respectively.

In the case of `c1ccc(N2CCN(CC[C@H]3CC[C@H](Nc4ncnc5ccccc45)CC3)CC2)cc1`, the inhibition constant Ki in [1] is 74 nM; in assay [5] it was 3.2 nM; in assay [2], 0.02 nM.

With `c1cnc(N[C@H]2CC[C@H](CCN3CCN(c4cccnc4)CC3)CC2)nc1`, the Ki in [1] came to 9.5 nM; in assay [5], 25 nM; in assay [2], 4.7 nM.

Turning to `CN(CCc1ccccc1)CC[C@H]1CC[C@H](Nc2ncccn2)CC1`, the Ki in assay [1] amounted to 91 nM; in assay [5], 39 nM.

Usually Ki stands for the dissociation constant of the complex between target and ligand, obtained from inhibition or displacement. In general, IC50 refers to the concentration needed to halve the response being measured. In general, ED50 refers to the dose that gives a 50% effect, or the effect in half of the subjects. A high value points to a need for a large dose. In general, EC50 refers to the concentration needed to bring the measured effect to its halfway point. A higher EC50 goes with a need for much substance.
